# Tests used:
# [1] = tested on: B/Malaysia/2506/2004 (B-Mal); type: cell-based, influenza virus
# [2] = tested on: Micrococcus luteus DSM 20030; assay: Antibacterial growth assay (OD600); conditions: OD600, medium = 100, MH II broth; for Bacterial growth relative to medium, M. luteus, replicate 1: replicate column 1; for Bacterial growth relative to medium, M. luteus, replicate 2: replicate column 2; for Bacterial growth relative to medium, M. luteus, replicate 3: replicate column 3
# A/Hamburg/05/2009 (H1N1) = type: cell-based, influenza virus
# [3] = tested on: Pseudomonas aeruginosa DSM 1117; assay: Antibacterial growth assay (OD600); conditions: for Bacterial growth relative to medium, P. aeruginosa (1117), replicate 1 / Bacterial growth relative to medium, P. aeruginosa (1117), replicate 2 / Bacterial growth relative to medium, P. aeruginosa (1117), replicate 3: OD600, medium = 100, MH II broth; for Bacterial growth relative to medium, P. aeruginosa (1117), replicate 1: replicate column 1; for Bacterial growth relative to medium, P. aeruginosa (1117), replicate 2: replicate column 2; for Bacterial growth relative to medium, P. aeruginosa (1117), replicate 3: replicate column 3
# Protocol: (§1) Cryo-conserved cultures of selected bacterial strains (Table 4) were transferred to Tryptic Soy Agar (TSA) plates (Carl Roth) with a sterile inoculation loop, sealed with Parafilm (BEMIS, Neenah, WI, USA), and incubated for 1–2 days at 37 °C depending on growth. Single colonies were picked and transferred into 2–3 mL of the Mueller–Hinton II (MH II) broth (BD, Heidelberg, Germany). The bacteria were cultivated overnight, subcultured on fresh medium and grown for 3–4 h before testing at 37 °C, with shaking at 180 rpm. We measured the optical density at 600 nm (OD600) of 1 mL of the bacterial suspensions in polystyrene cuvettes (SARSTED, Nümbrecht, Germany) using an Ultrospec 10 spectrophotometer (Biochrome, Cambridge, UK). We then diluted them with the MH II medium to the preferred OD600 (Table 2). The peptides were dissolved in DMSO to generate 10 mmol/L stocks and diluted with the MH II medium to 200 µM before the assay. We used 10 µg/mL (~40 µg/mL for S. epidermidis) gentamicin and colistin (Sigma-Aldrich, Taufkirchen, Germany), DMSO and the medium only as controls. The bacteria were transferred to 96-multiwell plates with a final volume of 100 µL per well (50 µL bacterial suspension, and 50 µL test peptide). The OD600 was measured at 0, 24 and 48 h using a BioTek Eon microplate reader followed by analysis with Gen5 v2.09.
# A/Hessen/1/2003 (H3N2) = type: cell-based, influenza virus
# [4] = tested on: panel of seven bacterial strains; assay: Antibacterial growth assay (OD600), statements on the whole panel; type: cell-based; conditions: growth after 48 h
# [5] = tested on: Staphylococcus aureus DSM 2569; assay: Antibacterial growth assay (OD600); conditions: OD600, medium = 100, MH II broth; for Bacterial growth relative to medium, S. aureus, replicate 1: replicate column 1; for Bacterial growth relative to medium, S. aureus, replicate 2: replicate column 2; for Bacterial growth relative to medium, S. aureus, replicate 3: replicate column 3
# [6] = tested on: Staphylococcus epidermidis DSM 28319; assay: Antibacterial growth assay (OD600); conditions: for Bacterial growth relative to medium, S. epidermidis, replicate 1: replicate column 1; for Bacterial growth relative to medium, S. epidermidis, replicate 2: replicate column 2; for Bacterial growth relative to medium, S. epidermidis, replicate 3: replicate column 3
# [7] = tested on: Pseudomonas aeruginosa DSM 50071; assay: Antibacterial growth assay (OD600); conditions: for Bacterial growth relative to medium, P. aeruginosa (50071), replicate 1 / Bacterial growth relative to medium, P. aeruginosa (50071), replicate 2 / Bacterial growth relative to medium, P. aeruginosa (50071), replicate 3: OD600, medium = 100, MH II broth; for Bacterial growth relative to medium, P. aeruginosa (50071), replicate 1: replicate column 1; for Bacterial growth relative to medium, P. aeruginosa (50071), replicate 2: replicate column 2; for Bacterial growth relative to medium, P. aeruginosa (50071), replicate 3: replicate column 3
# Protocol: as §1
# [8] = tested on: Escherichia coli BL21(DE3); assay: Antibacterial growth assay (OD600); conditions: OD600, medium = 100, MH II broth; for Bacterial growth relative to medium, E. coli, replicate 1: replicate column 1; for Bacterial growth relative to medium, E. coli, replicate 2: replicate column 2; for Bacterial growth relative to medium, E. coli, replicate 3: replicate column 3
# Protocol: as §1
# [9] = tested on: Listeria monocytogenes DSM 20600; assay: Antibacterial growth assay (OD600); conditions: for Bacterial growth relative to medium, L. monocytogenes, replicate 1 / Bacterial growth relative to medium, L. monocytogenes, replicate 2 / Bacterial growth relative to medium, L. monocytogenes, replicate 3: OD600, medium = 100, MH II broth; for Bacterial growth relative to medium, L. monocytogenes, replicate 1: replicate column 1; for Bacterial growth relative to medium, L. monocytogenes, replicate 2: replicate column 2; for Bacterial growth relative to medium, L. monocytogenes, replicate 3: replicate column 3
# [10] = 37 °C, peptide 200 µM mixed 50 µL + 50 µL with bacteria, Figure 7: 48 h
# [11] = OD600, medium = 100, MH II broth, 37 °C, peptide 200 µM mixed 50 µL + 50 µL with bacteria, Figure 7: 48 h
# [12] = antibiotic control, table line says 10µg/mL (methods: ~40 µg/mL for S. epidermidis), OD600, medium = 100
substance,measurement,setting,value
SLFGLLDLVKSKVGQTGLL [LS-AMP-A1],"Viability of infected cells relative to aprotinin, Replicate 1",[1],0.04827
same,"Viability of infected cells relative to aprotinin, Replicate 2",[1],0.03878
same,"Viability of infected cells relative to aprotinin, Replicate 3",[1],0.05872
same,"Bacterial growth relative to medium, M. luteus, replicate 1",[2]; [10],73.9935
same,"Bacterial growth relative to medium, M. luteus, replicate 2",[2]; [10],135.023
same,"Bacterial growth relative to medium, M. luteus, replicate 3",[2]; [10],50.2152
same,"Viability of infected cells relative to aprotinin, Replicate 1",A/Hamburg/05/2009 (H1N1),0.03121
same,"Viability of infected cells relative to aprotinin, Replicate 2",A/Hamburg/05/2009 (H1N1),0.03837
same,"Viability of infected cells relative to aprotinin, Replicate 3",A/Hamburg/05/2009 (H1N1),0.04316
same,"Bacterial growth relative to medium, P. aeruginosa (1117), replicate 1",[3]; [10],79.0357
same,"Bacterial growth relative to medium, P. aeruginosa (1117), replicate 2",[3]; [10],70.5187
same,"Bacterial growth relative to medium, P. aeruginosa (1117), replicate 3",[3]; [10],73.1051
same,"Viability of infected cells relative to aprotinin, Replicate 1",A/Hessen/1/2003 (H3N2),0.185
same,"Viability of infected cells relative to aprotinin, Replicate 2",A/Hessen/1/2003 (H3N2),0.1781
same,"Viability of infected cells relative to aprotinin, Replicate 3",A/Hessen/1/2003 (H3N2),0.1313
same,Antibacterial activity over the panel (in words),[4],limited activity
same,"Bacterial growth relative to medium, S. aureus, replicate 1",[5]; [10],106.033
same,"Bacterial growth relative to medium, S. aureus, replicate 2",[5]; [10],110.791
same,"Bacterial growth relative to medium, S. aureus, replicate 3",[5]; [10],108.193
same,"Bacterial growth relative to medium, S. epidermidis, replicate 1",[6]; [11],132.924
same,"Bacterial growth relative to medium, S. epidermidis, replicate 2",[6]; [11],152.819
same,"Bacterial growth relative to medium, S. epidermidis, replicate 3",[6]; [11],103.22
same,"Bacterial growth relative to medium, P. aeruginosa (50071), replicate 1",[7]; [10],100.105
same,"Bacterial growth relative to medium, P. aeruginosa (50071), replicate 2",[7]; [10],111.979
same,"Bacterial growth relative to medium, P. aeruginosa (50071), replicate 3",[7]; [10],89.7927
same,"Bacterial growth relative to medium, E. coli, replicate 1",[8]; [10],153.553
same,"Bacterial growth relative to medium, E. coli, replicate 2",[8]; [10],169.757
same,"Bacterial growth relative to medium, E. coli, replicate 3",[8]; [10],114.343
same,"Bacterial growth relative to medium, L. monocytogenes, replicate 1",[9]; [10],93.4804
same,"Bacterial growth relative to medium, L. monocytogenes, replicate 2",[9]; [10],90.3626
same,"Bacterial growth relative to medium, L. monocytogenes, replicate 3",[9]; [10],102.296
SLLGLLDVVKSKIGQTG [LS-AMP-A14],"Viability of infected cells relative to aprotinin, Replicate 1",[1],0.05534
same,"Viability of infected cells relative to aprotinin, Replicate 2",[1],0.06456
same,"Viability of infected cells relative to aprotinin, Replicate 3",[1],0.1102
same,"Bacterial growth relative to medium, M. luteus, replicate 1",[2]; [10],101.208
same,"Bacterial growth relative to medium, M. luteus, replicate 2",[2]; [10],114.302
same,"Bacterial growth relative to medium, M. luteus, replicate 3",[2]; [10],44.4763
same,"Viability of infected cells relative to aprotinin, Replicate 1",A/Hamburg/05/2009 (H1N1),0.03385
same,"Viability of infected cells relative to aprotinin, Replicate 2",A/Hamburg/05/2009 (H1N1),0.02545
same,"Viability of infected cells relative to aprotinin, Replicate 3",A/Hamburg/05/2009 (H1N1),0.02099
same,"Bacterial growth relative to medium, P. aeruginosa (1117), replicate 1",[3]; [10],84.8429
same,"Bacterial growth relative to medium, P. aeruginosa (1117), replicate 2",[3]; [10],62.4783
same,"Bacterial growth relative to medium, P. aeruginosa (1117), replicate 3",[3]; [10],58.9547
same,Antibacterial activity (in words),"[3]; P. aeruginosa DSM 1117, growth after 48 h",weak activity
same,"Viability of infected cells relative to aprotinin, Replicate 1",A/Hessen/1/2003 (H3N2),0.07143
same,"Viability of infected cells relative to aprotinin, Replicate 2",A/Hessen/1/2003 (H3N2),0.146
same,"Viability of infected cells relative to aprotinin, Replicate 3",A/Hessen/1/2003 (H3N2),0.0602
same,"Viability of infected cells relative to aprotinin, Replicate 4","A/Hessen/1/2003 (H3N2); […], replicate 4 (additional internal control)",0.04395
same,"Bacterial growth relative to medium, S. aureus, replicate 1",[5]; [10],81.4506
same,"Bacterial growth relative to medium, S. aureus, replicate 2",[5]; [10],83.1916
same,"Bacterial growth relative to medium, S. aureus, replicate 3",[5]; [10],66.5171
same,"Bacterial growth relative to medium, S. epidermidis, replicate 1",[6]; [11],97.145
same,"Bacterial growth relative to medium, S. epidermidis, replicate 2",[6]; [11],104.641
same,"Bacterial growth relative to medium, S. epidermidis, replicate 3",[6]; [11],74.4979
same,"Bacterial growth relative to medium, P. aeruginosa (50071), replicate 1",[7]; [10],100.972
same,"Bacterial growth relative to medium, P. aeruginosa (50071), replicate 2",[7]; [10],116.001
same,"Bacterial growth relative to medium, P. aeruginosa (50071), replicate 3",[7]; [10],81.6852
same,Antibacterial activity (in words),"[7]; P. aeruginosa DSM 50071, growth after 48 h",weak activity
same,"Bacterial growth relative to medium, E. coli, replicate 1",[8]; [10],109.705
same,"Bacterial growth relative to medium, E. coli, replicate 2",[8]; [10],98.8412
same,"Bacterial growth relative to medium, E. coli, replicate 3",[8]; [10],96.3776
same,Antibacterial activity (in words),"[9]; L. monocytogenes DSM 20600, growth after 48 h",more active
same,"Bacterial growth relative to medium, L. monocytogenes, replicate 1",[9]; [10],102.734
same,"Bacterial growth relative to medium, L. monocytogenes, replicate 2",[9]; [10],82.6703
same,"Bacterial growth relative to medium, L. monocytogenes, replicate 3",[9]; [10],49.785
"colistin [Polymyx, reference compound]","Bacterial growth relative to medium, M. luteus, replicate 1",[2]; antibiotic control 10µg/mL,34.787
same,"Bacterial growth relative to medium, M. luteus, replicate 2",[2]; antibiotic control 10µg/mL,53.8113
same,"Bacterial growth relative to medium, M. luteus, replicate 3",[2]; antibiotic control 10µg/mL,47.1539
same,"Bacterial growth relative to medium, P. aeruginosa (1117), replicate 1",[3]; antibiotic control 10µg/mL,8.3082
same,"Bacterial growth relative to medium, P. aeruginosa (1117), replicate 2",[3]; antibiotic control 10µg/mL,7.355
same,"Bacterial growth relative to medium, P. aeruginosa (1117), replicate 3",[3]; antibiotic control 10µg/mL,3.543
same,"Bacterial growth relative to medium, S. aureus, replicate 1",[5]; antibiotic control 10µg/mL,85.0041
same,"Bacterial growth relative to medium, S. aureus, replicate 2",[5]; antibiotic control 10µg/mL,99.7935
same,"Bacterial growth relative to medium, S. aureus, replicate 3",[5]; antibiotic control 10µg/mL,95.4465
same,"Bacterial growth relative to medium, S. epidermidis, replicate 1",[6]; [12],77.611
same,"Bacterial growth relative to medium, S. epidermidis, replicate 2",[6]; [12],72.7124
same,"Bacterial growth relative to medium, S. epidermidis, replicate 3",[6]; [12],81.8478
same,"Bacterial growth relative to medium, P. aeruginosa (50071), replicate 1",[7]; antibiotic control 10µg/mL,5.416
same,"Bacterial growth relative to medium, P. aeruginosa (50071), replicate 2",[7]; antibiotic control 10µg/mL,11.2545
same,"Bacterial growth relative to medium, P. aeruginosa (50071), replicate 3",[7]; antibiotic control 10µg/mL,11.5437
same,"Bacterial growth relative to medium, E. coli, replicate 1",[8]; antibiotic control 10µg/mL,15.553
same,"Bacterial growth relative to medium, E. coli, replicate 2",[8]; antibiotic control 10µg/mL,16.1645
same,"Bacterial growth relative to medium, E. coli, replicate 3",[8]; antibiotic control 10µg/mL,11.9401
same,"Bacterial growth relative to medium, L. monocytogenes, replicate 1",[9]; antibiotic control 10µg/mL,82.3087
same,"Bacterial growth relative to medium, L. monocytogenes, replicate 2",[9]; antibiotic control 10µg/mL,64.4034
same,"Bacterial growth relative to medium, L. monocytogenes, replicate 3",[9]; antibiotic control 10µg/mL,78.447
